From PubChem BioAssay (NCI)
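A five-concentration, 48-hour dose response in 96-well plates underlies each endpoint, interpolated linearly between surrounding concentrations. Here, GI50 denotes the concentration required for 50% inhibition of growth. TGI denotes the concentration required for complete inhibition of growth.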

What was measured:
Experiment in all cases: NCI tumour cell line growth inhibition, 48 h
786-0 renal = test system: 786-0 renal
A498 renal = test system: A498 renal
A549 NSCLC = test system: A549 NSCLC
ACHN renal = test system: ACHN renal
BT-549 breast = test system: BT-549 breast
CAKI-1 renal = test system: CAKI-1 renal
CCRF-CEM leukemia = test system: CCRF-CEM leukemia
COLO 205 colon = test system: COLO 205 colon
DU-145 prostate = test system: DU-145 prostate
EKVX NSCLC = test system: EKVX NSCLC
HCC-2998 colon = test system: HCC-2998 colon
HCT-116 colon = test system: HCT-116 colon
HCT-15 colon = test system: HCT-15 colon
HL-60(TB) leukemia = test system: HL-60(TB) leukemia
HOP-62 NSCLC = test system: HOP-62 NSCLC
HOP-92 NSCLC = test system: HOP-92 NSCLC
HS 578T breast = test system: HS 578T breast
HT29 colon = test system: HT29 colon
IGROV1 ovarian = test system: IGROV1 ovarian
K-562 leukemia = test system: K-562 leukemia
KM12 colon = test system: KM12 colon
LOX IMVI melanoma = test system: LOX IMVI melanoma
M14 melanoma = test system: M14 melanoma
MALME-3M melanoma = test system: MALME-3M melanoma
MCF7 breast = test system: MCF7 breast
MDA-MB-231 breast = test system: MDA-MB-231 breast
MDA-MB-435 = test system: MDA-MB-435
MOLT-4 leukemia = test system: MOLT-4 leukemia
NCI-H226 lung = test system: NCI-H226 lung
NCI-H23 lung = test system: NCI-H23 lung
NCI-H460 lung = test system: NCI-H460 lung
NCI-H522 lung = test system: NCI-H522 lung
NCI/ADR-RES ovarian = test system: NCI/ADR-RES ovarian
OVCAR-4 ovarian = test system: OVCAR-4 ovarian
OVCAR-5 ovarian = test system: OVCAR-5 ovarian
OVCAR-8 ovarian = test system: OVCAR-8 ovarian
PC-3 prostate = test system: PC-3 prostate
RPMI-8226 leukemia = test system: RPMI-8226 leukemia
RXF 393 renal = test system: RXF 393 renal
SF-268 CNS = test system: SF-268 CNS
SF-295 CNS = test system: SF-295 CNS
SF-539 CNS = test system: SF-539 CNS
SK-MEL-2 melanoma = test system: SK-MEL-2 melanoma
SK-MEL-28 melanoma = test system: SK-MEL-28 melanoma
SK-MEL-5 melanoma = test system: SK-MEL-5 melanoma
SK-OV-3 ovarian = test system: SK-OV-3 ovarian
SN12C renal = test system: SN12C renal
SNB-19 CNS = test system: SNB-19 CNS
SNB-75 CNS = test system: SNB-75 CNS
SR leukemia = test system: SR leukemia
SW-620 colon = test system: SW-620 colon
T-47D breast = test system: T-47D breast
TK-10 renal = test system: TK-10 renal
U251 CNS = test system: U251 CNS
UACC-257 melanoma = test system: UACC-257 melanoma
UACC-62 melanoma = test system: UACC-62 melanoma
UO-31 renal = test system: UO-31 renal

SMILES: Oc1ccc(CSc2nnc(-c3ccccc3)n2-c2ccccc2)c2cccnc12
- GI50 (786-0 renal): 923 nM
- TGI (786-0 renal): 5.09 µM
- GI50 (A498 renal): 1520 nM
- TGI (A498 renal): 11.7 µM
- GI50 (A549 NSCLC): 644 nM
- TGI (A549 NSCLC): > 33.3 µM
- GI50 (ACHN renal): 364 nM
- TGI (ACHN renal): 1290 nM
- GI50 (BT-549 breast): 590 nM
- TGI (BT-549 breast): > 26 µM
- GI50 (CAKI-1 renal): 559 nM
- TGI (CAKI-1 renal): 3.44 µM
- GI50 (CCRF-CEM leukemia): 396 nM
- TGI (CCRF-CEM leukemia): > 43.4 µM
- GI50 (COLO 205 colon): 4.79 µM
- TGI (COLO 205 colon): > 100 µM
- GI50 (DU-145 prostate): 605 nM
- TGI (DU-145 prostate): 22.2 µM
- GI50 (EKVX NSCLC): 771 nM
- TGI (EKVX NSCLC): 6.4 µM
- GI50 (HCC-2998 colon): 728 nM
- TGI (HCC-2998 colon): > 100 µM
- GI50 (HCT-116 colon): 362 nM
- TGI (HCT-116 colon): 4.87 µM
- GI50 (HCT-15 colon): 348 nM
- TGI (HCT-15 colon): > 100 µM
- GI50 (HL-60(TB) leukemia): 376 nM
- TGI (HL-60(TB) leukemia): 6.91 µM
- GI50 (HOP-62 NSCLC): 449 nM
- TGI (HOP-62 NSCLC): 7.91 µM
- GI50 (HOP-92 NSCLC): 227 nM
- TGI (HOP-92 NSCLC): 787 nM
- GI50 (HS 578T breast): 433 nM
- TGI (HS 578T breast): 12.1 µM
- GI50 (HT29 colon): 3.96 µM
- TGI (HT29 colon): > 100 µM
- GI50 (IGROV1 ovarian): 557 nM
- TGI (IGROV1 ovarian): 13 µM
- GI50 (K-562 leukemia): 403 nM
- TGI (K-562 leukemia): > 39.7 µM
- GI50 (KM12 colon): 534 nM
- TGI (KM12 colon): > 100 µM
- GI50 (LOX IMVI melanoma): 485 nM
- TGI (LOX IMVI melanoma): 2820 nM
- GI50 (M14 melanoma): 405 nM
- TGI (M14 melanoma): 2440 nM
- GI50 (MALME-3M melanoma): 1150 nM
- TGI (MALME-3M melanoma): 6.19 µM
- GI50 (MCF7 breast): 348 nM
- TGI (MCF7 breast): > 70.2 µM
- GI50 (MDA-MB-231 breast): 620 nM
- TGI (MDA-MB-231 breast): 11.4 µM
- GI50 (MDA-MB-435): 439 nM
- TGI (MDA-MB-435): > 100 µM
- GI50 (MOLT-4 leukemia): 480 nM
- TGI (MOLT-4 leukemia): > 100 µM
- GI50 (NCI-H226 lung): 1900 nM
- TGI (NCI-H226 lung): > 79.2 µM
- GI50 (NCI-H23 lung): 541 nM
- TGI (NCI-H23 lung): 11 µM
- GI50 (NCI-H460 lung): 351 nM
- TGI (NCI-H460 lung): 3.47 µM
- GI50 (NCI-H522 lung): 402 nM
- TGI (NCI-H522 lung): 7.19 µM
- GI50 (NCI/ADR-RES ovarian): 285 nM
- TGI (NCI/ADR-RES ovarian): 2340 nM
- GI50 (OVCAR-4 ovarian): 706 nM
- TGI (OVCAR-4 ovarian): 13 µM
- GI50 (OVCAR-5 ovarian): 2880 nM
- TGI (OVCAR-5 ovarian): > 100 µM
- GI50 (OVCAR-8 ovarian): 377 nM
- TGI (OVCAR-8 ovarian): > 22.8 µM
- GI50 (PC-3 prostate): 440 nM
- TGI (PC-3 prostate): > 47.7 µM
- GI50 (RPMI-8226 leukemia): 448 nM
- TGI (RPMI-8226 leukemia): > 100 µM
- GI50 (RXF 393 renal): 887 nM
- TGI (RXF 393 renal): 6.12 µM
- GI50 (SF-268 CNS): 519 nM
- TGI (SF-268 CNS): 21.1 µM
- GI50 (SF-295 CNS): 406 nM
- TGI (SF-295 CNS): 4.28 µM
- GI50 (SF-539 CNS): 427 nM
- TGI (SF-539 CNS): 3.27 µM
- GI50 (SK-MEL-2 melanoma): 621 nM
- TGI (SK-MEL-2 melanoma): 6.09 µM
- GI50 (SK-MEL-28 melanoma): 614 nM
- TGI (SK-MEL-28 melanoma): 55.2 µM
- GI50 (SK-MEL-5 melanoma): 522 nM
- TGI (SK-MEL-5 melanoma): 3.22 µM
- GI50 (SK-OV-3 ovarian): 481 nM
- TGI (SK-OV-3 ovarian): 6.81 µM
- GI50 (SN12C renal): 416 nM
- TGI (SN12C renal): 25.4 µM
- GI50 (SNB-19 CNS): 395 nM
- TGI (SNB-19 CNS): 14.2 µM
- GI50 (SNB-75 CNS): 673 nM
- TGI (SNB-75 CNS): 5.15 µM
- GI50 (SR leukemia): 404 nM
- TGI (SR leukemia): > 100 µM
- GI50 (SW-620 colon): 443 nM
- TGI (SW-620 colon): > 100 µM
- GI50 (T-47D breast): 625 nM
- TGI (T-47D breast): 4.32 µM
- GI50 (TK-10 renal): 514 nM
- TGI (TK-10 renal): 4.67 µM
- GI50 (U251 CNS): 298 nM
- TGI (U251 CNS): 9.46 µM
- GI50 (UACC-257 melanoma): 811 nM
- TGI (UACC-257 melanoma): 6.65 µM
- GI50 (UACC-62 melanoma): 713 nM
- TGI (UACC-62 melanoma): 3.63 µM
- GI50 (UO-31 renal): 315 nM
- TGI (UO-31 renal): 1560 nM
